Measurements reported in patent US20110129883A1, “INACTIVATION OF GENES OF THE MEP PATHWAY” (BIOAGENCY AG, priority 2001, published 2011).

System: E. coli transformed with the synthetic operon
Type: cell-based

**Q.** With O=CN(O)CCCP(=O)(O)O [fosmidomycin] as the compound, how does the “bacterial growth under fosmidomycin” value read?
**A.** at a reduced rate and died
